In patent EP0363224A1, “Treatment of periodontal disease” (BLOCK DRUG COMPANY INC., priority 1988, dated 1990):

Assays:
cyclooxygenase = assay: inhibition of cyclooxygenase conversion of radiolabeled arachidonic acid into prostaglandins in homogenate of inflamed gingival tissue; assay type: biochemical, humans; conditions: comparison of IC₅₀ values
Protocol: Inflamed gingival tissues from the mouths of humans suffering from periodontal disease were used fresh or stored in liquid nitrogen until used. Tis­sues were pooled, homogenized in 0.2 M TRIS buffer, and centrifuged. Radiolabeled arachidonic acid (¹⁴C) was added to the centrifrugate into which various in­hibiting agents under study had been incorporated into separate aliquots, at various molar levels (log range of 10⁻³ to 10⁻⁹M). The reaction between arachidonic acid and test materials was carried out for 2 hours at 37°C.
Prostaglandins in the biological reaction mixtures were extracted and quantitatively determined by high performance liquid chromatography.

[1] = tested on: naturally occurring periodontal disease; conditions: systemic doses, 12-month treatment, compared to untreated or periodontal surgery control groups; cited from earlier work
alveolar bone resorption = conditions: long-term therapy, compared to matched undosed control group; cited from earlier work

Row | SMILES | rate of alveolar bone resorption (alveolar bone resorption) | also measured
1 | CC(C(=O)O)c1cccc(C(=O)c2ccccc2)c1 (stereo not shown) [2-methyl (3-benzoylphenyl) propanoic acid] | – | effectiveness compared with other test materials (cyclooxygenase): slightly more effective than alpha tocopherol
2 | CC(C(=O)O)c1ccc(-c2ccccc2)c(F)c1 (stereo not shown) [Flurbiprofen] | – | alveolar bone loss [1]: significant reduction in alveolar bone loss
3 | COc1ccc2c(c1)c(CC(=O)O)c(C)n2C(=O)c1ccc(Cl)cc1 [Indomethacin] | lower rate of alveolar bone resorption | –
4 | CC(=O)Oc1ccccc1C(=O)O [aspirin] | lower rate of alveolar bone resorption | –
